Source: patent US12371432B2, “Haloallylamine compounds and application thereof” (TransThera Sciences (Nanjing), Inc., priority 2019, dated 2025)
pIC50: −log10 of the molar value. Where a name gives a salt, the structure may show the parent alone.

Molecular target: T1, rhVAP-1 (Homo sapiens, UniProt Q16853)
T1 construct: purchased PeproTech
T1 sequence (Q16853 27-763 limits assumed): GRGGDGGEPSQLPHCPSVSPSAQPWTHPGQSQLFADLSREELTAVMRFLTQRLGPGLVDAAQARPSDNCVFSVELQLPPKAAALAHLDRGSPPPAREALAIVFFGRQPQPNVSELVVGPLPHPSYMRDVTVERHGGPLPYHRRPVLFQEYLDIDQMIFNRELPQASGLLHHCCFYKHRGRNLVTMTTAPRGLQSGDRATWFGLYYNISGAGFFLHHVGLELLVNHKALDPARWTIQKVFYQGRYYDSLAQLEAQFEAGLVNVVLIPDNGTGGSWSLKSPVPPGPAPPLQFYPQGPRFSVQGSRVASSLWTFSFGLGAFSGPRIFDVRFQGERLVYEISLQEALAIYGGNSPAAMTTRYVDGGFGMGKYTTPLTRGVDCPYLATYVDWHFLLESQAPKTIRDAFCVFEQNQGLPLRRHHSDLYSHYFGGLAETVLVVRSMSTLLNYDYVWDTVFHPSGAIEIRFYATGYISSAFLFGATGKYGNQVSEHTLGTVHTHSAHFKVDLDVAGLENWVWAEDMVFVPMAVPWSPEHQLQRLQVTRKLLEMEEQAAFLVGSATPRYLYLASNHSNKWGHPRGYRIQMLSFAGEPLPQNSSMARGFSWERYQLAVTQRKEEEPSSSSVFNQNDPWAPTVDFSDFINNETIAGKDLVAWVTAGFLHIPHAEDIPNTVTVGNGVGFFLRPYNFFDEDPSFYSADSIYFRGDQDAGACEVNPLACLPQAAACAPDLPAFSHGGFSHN
Test: Inhibitory activity against rhVAP-1 enzyme (Biological Example 1)
Type: biochemical
Conditions: Table 1; benzylamine substrate, Amplex Red/HRP
Description: 1. Inhibitory Activity of Compounds Against rhVAP-1 Enzyme
(1) Instrument, Consumable and Reagent
Multifunctional microplate reader (MD, FlexStation3), black unclear-bottom 96-well plate (Corning), and rhVAP-1 (PeproTech)
(2) Preparation of Concentration Gradient Compound Solutions
An appropriate amount of the compound to be tested was taken, dissolved in DMSO to 10 mM and then stored. Before the study, an appropriate amount of mother liquor of the 10 mM compound to be tested was diluted with DMSO, so that 1 mM solution was obtained. The solution was then gradiently diluted 3-fold with DMSO, 10 concentration gradients in total. PBS was then used to carry out 100-fold dilution, so that compound solutions of 10× series of concentrations were prepared.
(3) Preparation of Enzyme Solutions
An appropriate amount of protein diluent was added into rhVAP-1 powder, obtaining 1 mg/mL of mother liquor for storage. Before the study, PBS was used to carry out dilution to obtain enzyme solutions of 4× concentrations.
(4) Preparation of Substrate Mixtures of 2× Concentrations
An appropriate amount of benzylamine was weighed and dissolved with PBS to obtain 200 mM of benzylamine solution. The benzylamine solution was added with 2 mM of Amplex Red mother liquor and 500 U/mL of HRP mother liquor and diluted with PBS to obtain substrate mixtures of 2× concentrations.
10 μL compound solutions of different concentrations, 25 μL rhVAP-1 enzyme solutions of 4× concentrations and 15 μL of PBS were first added into a 96-well plate, shaken to be mixed uniformly and then incubated at 37° C. for 30 min. 50 μL substrate mixtures of 2× concentrations were then added into each well, and the microplate reader was immediately used to detect fluorescence intensity of each well with 565 nm exciting light and 590 nm emission light for 5 min each time, 25 min in total. […]
V: fluorescence change rate; Ft: fluorescence reading at time point t; F0: initial fluorescence reading; Time: duration t; Vcmpd: fluorescence change rate of tested compound; Vmax: Max hole fluorescence change rate. […]

pIC50	Structure (SMILES)
7.14	NC/C(=C\F)Cn1ncc2c1CCN(C1CC1)C2=O [Compound A2 hydrochloride, (E)-1-(2-(aminomethyl)-3-fluoroallyl)-5-cyclopropyl-1,5,6,7-tetrahydro-4H-pyrazolo[4,3-c]pyridin-4-one]
7.42	NC/C(=C\F)Cn1cc2c(n1)CCN(C1CC1)C2=O [Compound A1, (E)-2-(2-(aminomethyl)-3-fluoroallyl)-5-cyclopropyl-2,5,6,7-tetrahydro-4H-pyrazolo[4,3-c]pyridin-4-one]
